Assay results taken from patent publication US20180312539A1, “METHODS FOR PREPARING HIGH THROUGHPUT PEPTIDOMIMETICS, ORALLY BIOAVAILABLE DRUGS AND COMPOSITIONS CONTAINING SAME” (University of Southern California, priority 2011, published 2018).

How the values were obtained:
[1] = target: T1, chymotrypsin (Bos taurus, UniProt P00766); test: Basic kinetic study with chymotrypsin (Km, Vmax); format: biochemical; details: relative to cycGIBP
T1 construct: purchased Sigma
From the text: Crystal structures of serine proteases such as chymotrypsin and proteinase K show a hydrogen bonding network from the protease to the backbone of their substrate at four amino acid positions. Applicants postulated that N-methylation would result in a steric clash between the substrate and protease, thereby inhibiting the ability of the protease to bind to the peptide. In enzyme kinetic terms, this would result in an enhancement of Km. Additionally, several experiments have shown that proteases such as chymotrypsin, will not cut all of their predicted digest sites equally. It has long been observed that secondary structure will have an effect on proteolysis of a protein. However, there are now several independent examples of peptides with, with no predicted secondary structure that have predicted protease digest sites that are not proteolyzed. Applicants suspect that there may be some local sequence context that is inhibitor for proteolysis. This sequence context may either make it harder for the protease to bind its substrate (Km), or it may make it more difficult for the protease to perform catalysis on the substrate (Vmax). To investigate the origin of these enhancements, Applicants conducted a basic kinetic study with chymotrypsin. Proteinase K digested GIBP too quickly for this type of analysis but could be utilized in other systems and with other peptides.

[2] = parameters: species or system C57BL6 mice; details: mouse, in vivo, po, 10 mg/kg
Experimental: The following peptides were synthesized for oral administration: […](FAM) (SEQ ID NO: 14), […](FAM)DK(Palmitoleic acid) (SEQ ID NO: 15), and […](FAM) (SEQ ID NO: 16), wherein FAM is a lysine derivative containing fluorescein. All peptides were cyclized from the side chain to lysine to the N-terminus as previously described. Anesthetized C57BL6 mice had peptide administered at a dose of 10 mg/kg by oral gavage. After administration, mice were removed from isoflurane. At various time points, blood samples were taken by orbital bleeding as previously described. Peaks were normalized to a 15 minute time point from mice that had peptide administered by IV injection.
The following peptides were synthesized for oral administration: […](FAM) (SEQ ID NO: 14), […](FAM) (SEQ ID NO: 16), […](FAM)DK(biotin) (SEQ ID NO: 38), and […](FAM)DK(Palmitoleic acid) (SEQ ID NO: 15). All peptides were cyclized from the side chain to lysine to the N-terminus as previously described in Millward, S. W. et al. (2007) ACS Chem. Biol. 2:625. Anesthetized C57BL6 mice had peptide administered at a dose of 10 mgs/Kg by oral gavage. After administration, mice were removed from isoflurane. At various time points, blood samples were taken by orbital bleeding as previously described. Peaks were normalized to a 20 minute time point from mice that had peptide administered by IV injection. Area under the curve was analyzed by Graphpad 5.0.
In addition to accessing intracellular targets in cell culture, deriving a simple modification that would facilitate oral bioavailability of peptidic ligands would be greatly beneficial for therapeutic development. Intestinal absorption of both fatty acids and biotin is nearly 100% efficient. Zempleni, J. and Mock, D. M. (1999) The American Journal of Clinical Nutrition 69:504. […] Applicants synthesized a protease resistant peptide with the sequence […]-mod (designated SUPR peptide) (SEQ ID NO: 50), where A is N-methyl alanine, the peptide is cyclized from lysine to the N-terminus, and K(mod) is lysine with a modified sidechain including either biotin or palmitoleic acid. Palmitoleic acid is a monounsaturated fatty acid chosen for its ability to bind human serum albumin, and its low melting point allowing for more favorable solubility of conjugated peptides as compared to […] fatty acid conjugates. This peptide was administered to mice at a dose of 10 mg/kg by oral gavage. At various time points, blood was taken from the mice by orbital bleeding. After processing, fluorescence was quantified and compared to the maximum signal obtained by IV injection of peptide at the same dose.

CSCC[C@@H]1NC(=O)CCCC(=O)NCCCC[C@@H](C(N)=O)NC(=O)[C@H](CO)NC(=O)[C@H](Cc2c[nH]c3ccccc23)NC(=O)[C@H](CCC(N)=O)NC(=O)[C@H](C)N(C)C(=O)[C@H](Cc2ccc(O)cc2)NC(=O)[C@H](CCC(=O)O)NC(=O)[C@H](Cc2ccc(O)cc2)NC(=O)[C@H](C)N(C)C(=O)[C@H](Cc2ccc(O)cc2)NC(=O)[C@H](Cc2ccccc2)NC1=O [cycSUPR]
Km and Vmax of chymotrypsin digestion [1]: optimized for protease resistance relative to cycGIBP | oral uptake efficiency [2]: did not show any detectable oral uptake
